Laboratory results: patent US20250243218A1, “NOVEL CARBAMATE COMPOUND AND USE THEREOF” (CHENGDU SHIBEIKANG BIOMEDICAL TECHNOLOGY CO., LTD., priority 2022, published 2025)
Structures can show the parent of a compound that is named as a salt. Where two headings read alike, the source gives them in different places.

Assays:
[1] = tested on: ADP-induced platelet aggregation in rats; assay: Antiplatelet aggregation effect: ADP-induced platelet aggregation in PRP of rats after iv administration; format: in vivo; conditions: single iv at the same molar dose, blood 3 h after administration, ADP final 20 μM
Source text: 1. Test objective: Evaluation and comparison of the antiplatelet aggregation treatment effect of each compound after administration at the same molar amount
70 rats were randomly and evenly grouped into 7 groups, i.e., solvent control group, comparative example 1 (2-Oxo-clopidogrel) group, comparative example 2 (Vicagrel) group, compound 1 group, compound 2 group, compound 7 group and compound 8 group.
Rats were anesthetized by intraperitoneal injection of 1.5% sodium pentobarbital.
The anesthetized animals were transferred to an operating platform.
The rats were injected with anesthetic, and fixed on the operating platform in a supine position after the whole body of the rat became soft. After routine disinfection, the abdomen of the rat was incised along the abdominal midline using surgical scissors to open the abdominal cavity. The adipose tissue around the blood vessels was gently separated with a small forceps, and the excess adipose tissue covering the blood vessels was then wiped and removed with the cotton ball to make the blood vessels clearly visible (the abdominal aorta is located anterior to the vertebral column, and the abdominal vein appears thicker and darker in color than the abdominal aorta). The blood vessel was first fixed to prevent it from moving as much as possible. The left thumb and index finger fixed the adipose tissue and other organs on both sides of the blood vessel, while the ring finger pressed on the blood vessel at the upper end of the needle insertion point to lower the blood pressure, which can prevent blood spurting. The puncture needle was held with the right hand, with the bevel of the needle tip facing downward. The needle was inserted at an angle of about 30 degrees and advanced towards the heart to a suitable depth of about 5 mm. Once the blood had started to enter the needle via its tip, the other end of the blood collection needle was inserted into the vacuum tube. After the insertion of needle, the needle tip could be clamped with a hemostatic clip to prevent it from puncturing the blood vessel if the rat struggled due to insufficient anesthesia.
Three hours after the administration, the rats were anesthetized with sodium pentobarbital. Then blood was collected from the abdominal aorta, added with 3.8% sodium citrate (1:9) as an anticoagulant, mixed evenly and centrifuged at 200 g for 10 min. The supernatant was harvested to obtain the platelet-rich plasma (PRP), and the residual plasma was then centrifuged at 1600 g for 15 min to obtain the resulting supernatant as platelet-poor plasma (PPP).
Platelet aggregation rate was measured using a platelet aggregometer (model: Agg RAM, Helena, USA). The PPPs corresponding to the PRPs to be tested in each channel were first used to correct the light transmission, and the PPPs were removed after the correction. A cuvette added with 225 μl of PRP to be tested was then placed in each channel, and added with a stirrer, then ADP (with a final concentration of 20 μM). The platelet aggregometer immediately began to measure the platelet aggregation rate.

[2] = Pharmacokinetic study in SD rats, 2-Oxo-clopidogrel in plasma by LC/MS/MS; format: in vivo
Source text: After being administered via single gavage at the same molar amount, the pharmacokinetic characteristics of each compound were investigated, and the main pharmacokinetic parameters were compared.
Each test compound was accurately weighed separately into a clean drug container, dissolved with appropriate amount of Solutol, shaken by vortex, added with purified water, ultrasonicated, and shaken by vortex until the compound was completely dissolved. All the formulations were freshly prepared on the day of administration.
Thirty healthy adult SD rats were administered via gavage.
Grouping and Fasting: SD rats were randomly grouped, with 6 rats per group, and administered with the corresponding compounds via gavage according to Table 3.
Sample Collection and Processing: 0.2 ml of blood was collected at different time points of before (0 h) and 5 min, 15 min, 30 min, 1 h, 2 h, 4 h, 8 h, and 24 h after the administration. After the anticoagulation with EDTA-K2 was completed, the blood was centrifuged at 4° C. for 5 min, and then the plasma was separated and stored at −80° C. for later measurement.
Measurement: The blood drug concentration of 2-Oxo-clopidogrel in all PK plasma samples was measured by LC/MS/MS method, and the pharmacokinetic parameters of individual compounds were calculated by using software WinNonlin 7.2.

Solubility study = format: physicochemical; conditions: 25° C. to 30° C.; for Solubility, pH 1.2 buffer: 10 mg compound added to 1 ml buffer (pH 1.2); for Solubility, Physiological saline(1 ml): 10 mg compound added to 1 ml physiological saline
Description: Samples of the example compound 2 and comparative example 2 (Vicagrel) were accurately weighed. Under the condition of 25° C. to 30° C., 1 ml of physiological saline and 1 ml of a buffer (pH 1.2) were taken, and added with 10 mg of each compound, respectively. The compound 2 of the present disclosure had excellent solubility, which can satisfy the demand for the formulation into an injection with an effective concentration in clinical, while the solubility of the comparative example 2 was extremely low and it cannot satisfy the demand for injection, and the addition of additional solubilizer may pose potential safety risks.

[3] = Influencing factor test (high temperature, high humidity, light); format: physicochemical
Description: Test Methods: The samples of the compound 2 and comparative example 2 (Vicagrel) were weighed and placed in weighing bottles, respectively, and the weighing bottles were placed under the conditions of high temperature (60° C.), high humidity (RH 80%), and light (5000 Lux), respectively.

hERG potassium channel = target: T1, hERG potassium channel (Homo sapiens, UniProt Q12809); assay: cell-based; conditions: manual patch-clamp, stably overexpressed hERG channel
T1 construct: expressed in transfected cells
T1 sequence (Q12809 whole entry): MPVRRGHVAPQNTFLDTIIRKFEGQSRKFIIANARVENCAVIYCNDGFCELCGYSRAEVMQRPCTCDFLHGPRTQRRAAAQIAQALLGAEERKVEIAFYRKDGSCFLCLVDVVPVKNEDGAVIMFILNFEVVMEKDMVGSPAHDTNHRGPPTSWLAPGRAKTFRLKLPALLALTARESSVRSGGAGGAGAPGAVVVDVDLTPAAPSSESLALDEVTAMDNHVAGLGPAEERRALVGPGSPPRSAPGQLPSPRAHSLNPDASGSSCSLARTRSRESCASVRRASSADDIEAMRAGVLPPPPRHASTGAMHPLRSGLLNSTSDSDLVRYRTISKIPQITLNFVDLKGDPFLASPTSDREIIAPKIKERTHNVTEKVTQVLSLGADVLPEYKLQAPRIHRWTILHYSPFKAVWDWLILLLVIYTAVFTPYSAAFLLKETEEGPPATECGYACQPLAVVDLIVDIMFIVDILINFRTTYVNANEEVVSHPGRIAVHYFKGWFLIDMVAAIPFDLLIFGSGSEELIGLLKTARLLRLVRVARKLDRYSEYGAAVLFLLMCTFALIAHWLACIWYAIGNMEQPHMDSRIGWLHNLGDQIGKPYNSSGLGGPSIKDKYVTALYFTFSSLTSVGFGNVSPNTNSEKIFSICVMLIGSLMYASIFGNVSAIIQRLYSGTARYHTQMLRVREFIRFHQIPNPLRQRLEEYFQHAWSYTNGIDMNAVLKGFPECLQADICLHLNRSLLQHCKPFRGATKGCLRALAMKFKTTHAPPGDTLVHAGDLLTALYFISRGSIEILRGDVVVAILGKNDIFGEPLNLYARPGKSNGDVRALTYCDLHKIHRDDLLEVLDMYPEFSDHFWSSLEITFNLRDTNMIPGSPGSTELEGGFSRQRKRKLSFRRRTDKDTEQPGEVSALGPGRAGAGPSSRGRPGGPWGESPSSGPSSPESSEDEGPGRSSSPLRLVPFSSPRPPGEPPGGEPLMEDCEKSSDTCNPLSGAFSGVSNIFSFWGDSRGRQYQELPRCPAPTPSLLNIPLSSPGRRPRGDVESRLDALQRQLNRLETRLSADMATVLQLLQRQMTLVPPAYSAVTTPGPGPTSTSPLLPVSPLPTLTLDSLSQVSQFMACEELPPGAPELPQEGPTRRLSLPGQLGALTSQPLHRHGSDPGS
Source text: Test Example 2: Effect of Compounds on Current in Stably Overexpressed hERG Channel

rabbit blood cells = assay: In vitro hemolysis test; format: cell-based; conditions: compound 2 injection, 2% red blood cell suspension
Description: One Adult Big White-Eared Rabbit (Male)
(1) After the rabbit was anesthetized by injection of sodium pentobarbital via the marginal ear vein at about 30 mg/kg, about 20 ml of blood was collected from the heart into an appropriate container.
(2) A stirrer (or glass bead) was placed in the container, the blood was stirred at a slow speed for a few minutes to remove the fibrinogen in the blood so as to obtain defibrinated blood.
(3) About 10 times the amount of physiological saline was added, mixed evenly by shaking and aliquoted into centrifuge tubes. The tubes were centrifuged at 1000 to 2000 rpm for 15 min (the rotational speed and time for centrifugation could be adjusted according to the post-centrifugation situation due to the difference of centrifuge tubes in size), and then the supernatants were removed.
(5) The obtained red blood cells were prepared into a 2% suspension with physiological saline.

[4] = tested on: ear marginal vein of the rabbit; assay: Vascular irritation assay; format: in vivo
Description: Four Japanese Big-Ear White Rabbit (about 2 kg), 2♀/2♂ (2 Female/2 Male)
The intra-individual left/right comparison method was used. The compound 2 low dose injection and compound 2 high dose injection groups were set, with 2 rabbits in each group, half male and half female. The compound 2 injections were administered by injection into the ear marginal veins of right ears of the rabbits in the compound 2 low and high dose groups, with administration doses of 2.5 mg/kg and 7.5 mg/kg, respectively, and with the same administration volume of 5 ml/kg; and the corresponding administration concentrations were 0.5 mg/ml and 1.5 mg/ml, respectively. The same administration volume of sodium chloride injection as the negative control was administered by injection into the ear marginal veins of left ears of the rabbits in the compound 2 low and high dose groups. The administration was carried out by intravenous infusion for 30 min. […] The administration was performed once daily for a total of 7 consecutive days.
At 72 h and at the end of a 14-day recovery period after the final administration, half of the animals in each group […] were sacrificed, respectively. Marginal ear tissue samples were cut from the injection site and the proximal end of the marginal ear vein respectively and collected. The injection sites were observed by naked eyes for the response conditions to irritation. The obtained tissues were fixed with 10% neutral formalin and conventionally sectioned for histopathological examination.

[5] = IC50 (μM), inhibition of cardiac hERG potassium channel
[6] = 2-Oxo-clopidogrel in plasma, SD rats, single dose at same molar amount (Table 3: iv.; text: gavage), n = 6, mean ± SD

COC(=O)[C@H](c1ccccc1Cl)N1CCC2SC(=O)C=C2C1 (some centres unmarked) [Comparative Example 1, 2-Oxo-clopidogrel, reference compound]
Platelet aggregation rate (%) ([1]; solvent control 76.06 ± 3.29): 31.32 ± 6.07 ^ % | Platelet aggregation rate (%) ([1]; solvent control 76.06 ± 3.29, listed as comparative example 1): 31.32±6.07% | AUC0-last ([2]; SD, rat, in vivo): 60.15 ± 14.22 ng·h/mL | Cmax ([2]; SD, rat, in vivo): 38.48 ± 13.51 ng/mL | T1/2 ([2]; SD, rat, in vivo): 70.8 ± 12.6 min | Tmax ([2]; SD, rat, in vivo): 37.8 ± 9 min

COC(=O)[C@H](c1ccccc1Cl)N1CCc2sc(OC(C)=O)cc2C1 [Comparative Example 2, Vicagrel, reference compound]
Platelet aggregation rate (%) ([1]; solvent control 76.06 ± 3.29): 39.32 ± 12.38 ^ % | Platelet aggregation rate (%) ([1]; solvent control 76.06 ± 3.29, listed as comparative example 2): 39.32±12.38% | Solubility, pH 1.2 buffer (Solubility study): < 0.5 mg/mL | Solubility, Physiological saline(1 ml) (Solubility study): insoluble | change in appearance and characteristics ([3]; high temperature (60° C.), two days): from a white solid to a yellowish-brown oil

COC(=O)[C@H](c1ccccc1Cl)N1CCc2sc(OC(=O)N3CCN(C)CC3)cc2C1 [Compound 1, (S)-5-(1-(2-chlorophenyl)-2-methoxy-2-oxyethyl)-4,5,6,7-tetrahydrothieno[3,2-c]pyridin-2-yl 4-methylpiperazine-1-carboxylate]
Platelet aggregation rate (%) ([1]; solvent control 76.06 ± 3.29): 24.08 ± 6.00 % | Platelet aggregation rate (%) ([1]; solvent control 76.06 ± 3.29, listed as compound 1): 24.08±6.00% | IC50 (hERG potassium channel; [5]): 20.5 µM

COC(=O)[C@H](c1ccccc1Cl)N1CCc2sc(OC(=O)N3CCN(C)CC3)cc2C1.O=C(O)/C=C/C(=O)O [Compound 2, (S)-5-(1-(2-chlorophenyl)-2-methoxy-2-oxyethyl)-4,5,6,7-tetrahydrothieno[3,2-c]pyridin-2-yl 4-methylpiperazine-1-carboxylate fumarate]
Platelet aggregation rate (%) ([1]; solvent control 76.06 ± 3.29): 21.18 ± 8.51 % | Platelet aggregation rate (%) ([1]; solvent control 76.06 ± 3.29, listed as compound 2): 21.18±8.51% | IC50 (hERG potassium channel; read-out: IC50 (μM), inhibition of cardiac hERG potassium channel): 18.6 µM | AUC0-last (h*ng/ml) [2, 6]: 110.15 ± 32.62** h*ng/ml | Cmax [2, 6]: 76.82 ± 21.69 ng/mL | T1/2 [2, 6]: 119 ± 15 min | Tmax [2, 6]: 27 ± 7.8 min | hemolysis of rabbit blood cells (rabbit blood cells; high concentration 2.5 mg/ml): neither the compound 2 injection at low concentration (0.5 mg/ml) nor the compound 2 injection at high concentration (2.5 mg/ml) caused hemolysis | hemolysis of rabbit blood cells (rabbit blood cells; low concentration 0.5 mg/ml): neither the compound 2 injection at low concentration (0.5 mg/ml) nor the compound 2 injection at high concentration (2.5 mg/ml) caused hemolysis | vascular irritation effect on the ear marginal vein of the rabbit (overall determination) ([4]; high concentration 1.5 mg/ml): no vascular irritation effect | observation of ear marginal vein on the administered side at day 2 of the recovery period ([4]; high concentration 1.5 mg/ml, naked eyes): congestion of the ear marginal vein on the administered side was observed by naked eyes | vascular irritation effect on the ear marginal vein of the rabbit (overall) ([4]; low concentration 0.5 mg/ml, observed by naked eyes): no vascular irritation effect | Solubility, pH 1.2 buffer (Solubility study): >10 mg | Solubility, Physiological saline(1 ml) (Solubility study): >10 mg | change in content, appearance and shape ([3]; 10 days under each of high temperature, high humidity and light): little change in content and no obvious change in appearance and shape | content, Day 0 ([3]; Day 0): 98.39% | content, High humidity (Day 10) ([3]; high humidity (RH 80%), 10 days): 97.83% | content, High temperature (Day 10) ([3]; high temperature (60° C.), 10 days): 97.84% | content, Light (Day 10) ([3]; light (5000 Lux), 10 days): 96.09%

COC(=O)[C@H](c1ccccc1Cl)N1CCc2sc(OC(=O)N3CCC(N4CCCCC4)CC3)cc2C1 [Compound 7, (S)-5-(1-(2-chlorophenyl)-2-methoxy-2-oxyethyl)-4,5,6,7-tetrahydrothieno[3,2-c]pyridin-2-yl [1,4′-bipiperidine]-1′-carboxylate]
Platelet aggregation rate (%) ([1]; solvent control 76.06 ± 3.29): 27.59 ± 6.99 % | Platelet aggregation rate (%) ([1]; solvent control 76.06 ± 3.29, listed as compound 7): 27.59±6.99% | IC50 (hERG potassium channel; [5]): 25.4 µM

COC(=O)[C@H](c1ccccc1Cl)N1CCc2sc(OC(=O)N3CCC(N4CCCCC4)CC3)cc2C1 [Compound 8, (S)-5-(1-(2-chlorophenyl)-2-methoxy-2-oxyethyl)-4,5,6,7-t etrahydrothieno[3,2-c]pyridin-2-yl [1,4′-bipiperidine]-1′-carboxylate hydrochloride]
Platelet aggregation rate (%) ([1]; solvent control 76.06 ± 3.29, hydrochloride): 27.13 ± 6.50 % | IC50 (hERG potassium channel; [5]): 27.3 µM
